Common to all, as to assay type: cell-based, Saccharomyces cerevisiae
Assay [1] concerns RE700A Δpdr1,pdr3 tok1::PPDR5-HXT7. Put plainly: Growth inhibition of RE700A Δpdr1,pdr3 tok1::PPDR5-HXT7 by 2-DG. Conditions: RE700A Δpdr1,pdr3 tok1::PPDR5-HXT7, up to a 2-DG concentration of 0.03% (w/v). The protocol: (§1) (A) Growth inhibition of RE700A i PPDR5-HXT7 (IT[PDR]), RE700A Δpdr1 tok1::PPDR5-HXT7, RE700A Δpdr3 tok1::PPDR5-HXT7 and RE700A Δpdr1,pdr3 tok1::PPDR5-HXT7 at increasing 2-DG concentrations. RE700A i PPDR5-HXT7 (IT[PDR]), RE700A Δpdr1 tok1::PPDR5-HXT7, RE700A Δpdr3 tok1::PPDR5-HXT7 and RE700A Δpdr1,pdr3 tok1::PPDR5-HXT7 were incubated 20 h at 28° C. with Maltose (2% (w/v)) as the sole carbon source and 2-DG concentrations as indicated. The optical density was measured at 600 nm every 15 minutes and the integral under the growth curve was calculated. Inhibition of growth caused by 2-DG is shown in percent. The growth of the strain RE700A tok1::PPDR5-HXT7 (IT[PDR]) was inhibited by 50% at 0.02% (w/v) 2-DG. Growth of the strains RE700A Δpdr1 tok1::PPDR5-HXT7 and RE700A Δpdr3 tok1::PPDR5-HXT7 was inhibited by 50% at 0.026% (w/v) 2-DG.
(§2) All strains expressing HXT7 were tested for sensitivity to 2-DG. The strains expressing GFP under the control of PPDR5 were additionally analysed for GFP fluorescence in comparison to RE700Ae PPDR5-GFP (strain CQ[PDR]).

The test system of assay [2] is RE700A i PPMA1-HXT7 (ICFP). Put plainly: Growth inhibition of ICFP by 2-DG. The following applies: 20 h 28° C., maltose, in percent of growth of RE700A. The protocol: (B) RE700A, ICFP and IT[PDR] were incubated 20 h at 28° C. with maltose (2% (w/v)) as the sole carbon source and the indicated 2-DG concentrations. The optical density was measured at 600 nm every 15 minutes and the integral under the growth curve is calculated. Inhibition of growth of ICFP and IT[PDR] is shown in percent of growth of RE700A. Growth of ICFP was inhibited by 15% at 0.01% (w/v) 2-DG, by 74% at 0.03% (w/v) 2-DG, by 80% at 0.05% (w/v) 2-DG and by 83% at 0.1% (w/v) 2-DG. Growth of IT[PDR] was inhibited by 21% at 0.01% (w/v) 2-DG, by 79% at 0.03% (w/v) 2-DG, by 88% at 0.05% (w/v) 2-DG and by 96% in 0.1% (w/v) 2-DG.
(§3) Strain growth: The growth of the strains in liquid medium was determined by measuring the optical density at 600 nm. To obtain growth curves, measurements were performed every 15 min. Alternatively, start and endpoint (after 12-16 h) measurements were carried out.

For assay [3], the system named is RE700A Δpdr3 tok1::PPDR5-HXT7. Kind of assay: Growth inhibition of RE700A Δpdr3 tok1::PPDR5-HXT7 by 2-DG. Conditions: RE700A Δpdr3 tok1::PPDR5-HXT7, maltose, 20 h 28° C. As for the experimental part:
as §1, §2

For assay [4], the system named is RE700A Δpdr1 tok1::PPDR5long-HXT7. Put plainly: Growth of RE700A Δpdr1 tok1::PPDR5long-HXT7 in the presence of 2-DG. Conditions: RE700A Δpdr1 tok1::PPDR5long-HXT7, 20 h 28° C. The protocol:
(B) Relative growth of RE700A tok1::PPDR5long-HXT7, RE700A Δpdr1 tok1::PPDR5long-HXT7, RE700A Δpdr3 tok1::PPDR5long-HXT7 and RE700A Δpdr1,3 tok1::PPDR5long-HXT7 in the presence of 2-DG. Cells were incubated for 20 h at 28° C. with 2-DG at different concentrations. […] The standard error of the mean (n=5) is indicated.

For assay [5], the system named is RE700A Δpdr1 tok1::PPDR5-HXT7. Put plainly: Growth inhibition of RE700A Δpdr1 tok1::PPDR5-HXT7 by 2-DG. The following applies: RE700A Δpdr1 tok1::PPDR5-HXT7, maltose, 20 h 28° C. The protocol:
as §1, §2

Assay [6] relates to S. cerevisiae strain RE700A. Put plainly: Growth inhibition of RE700A by 2-DG in liquid maltose medium (OD600, integral under growth curve). The protocol: FIG. 1: Growth inhibition of S. cerevisiae strain RE700A at increasing 2-deoxy-glucose (2-DG) concentrations after incubation at 280 C for 20 h. RE700A was incubated for 20 h at 28° C. with maltose (2% (w/v)) as the sole carbon source and 2-DG at the concentrations indicated. The optical density was measured at 600 nm every 15 minutes and the integral under the growth curve was calculated. Inhibition of growth is shown in percent of growth of RE700A in the absence of 2-DG. The strain grew well in the presence of up to 0.5% (w/v) 2-DG.
as §3
The screening system used Saccharomyces cerevisiae RE700A, a yeast strain deprived of the seven most important glucose transporters (HXT1-7) (Reifenberger, E. et al., Molecular Microbiology 16:157-167 (1995)). The strain is not able to grow on glucose as the sole carbon source. It grows on maltose (2% (w/v)) as the sole carbon source. In addition, the strain grows well on maltose also in the presence of up to 0.5% (w/v) 2-deoxy-glucose (2-DG), a toxic glucose analogue, in the medium (FIG. 1). Growth is inhibited by 50% at a 2-DG concentration in liquid media of ˜1% (w/v) (FIG. 1).

“Also recorded” adds a separate entry of the source.

Consider `O=CC[C@@H](O)[C@H](O)[C@H](O)CO` [2-DG, 2-deoxy-glucose], for which the “Growth inhibition / 2-DG sensitivity” value in assay [1] is given as “did not show significant 2-DG sensitivity; also recorded: not significantly inhibited”. Also, the Inhibition of growth in assay [2] (0.01% (w/v) 2-DG) is reported as 15%; in assay [2] (0.03% (w/v) 2-DG), 74%; in assay [2] (0.05% (w/v) 2-DG), 80%; in assay [2] (0.1% (w/v) 2-DG), 83%. For the same molecule, the “2-DG concentration for 50% growth inhibition” value in assay [3] is on record as 0.026 % (w/v); in assay [4] it was 0.068 % (w/v); in assay [5], 0.026 % (w/v). For the same molecule, the “2-DG concentration at which growth is inhibited by 50%” value in assay [6] (liquid media, maltose) is ~1 % (w/v). Besides, the “2-DG concentration up to which the strain grows well” value in assay [6] (maltose 2% (w/v) sole carbon source, 20 h, 28° C.) is given as “up to 0.5 % (w/v)”.

The record behind these values is patent publication US9121026B2 (priority 2004, dated 2015).
